Source: patent US20250313572A1, “MACROCYCLIC MCL-1 INHIBITORS AND METHODS OF USE” (AbbVie Inc., priority 2017, published 2025)
Like-named read-outs stand apart in the source and are kept apart here.

Key:
[1] = molecular target: GST-MCL-1 (Homo sapiens, UniProt Q07820); assay: TR-FRET MCL-1 binding assay (competition with probe F-Bak)
How it was run: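 Displacement of F-Bak from GST-MCL-1 is detected by time-resolved FRET with a Tb-labelled anti-GST antibody, with excitation 340/35 nm and emission 520/525 and 495/510 nm, after 2 hours at room temperature. Compounds were titrated in 11 three-fold steps starting at 25 μM final, in buffer alone or in 10% HS.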

[2] = tested on: AMO-1 human multiple myeloma tumor cell line; assay: AMO-1 cell viability assay (CellTiter-Glo, 24 hours); format: cell-based; details: Homo sapiens, AMO1, 24 h, read-out: AMO-1 Viability IC50 (μM, 10% FBS), 10% FBS, 24 hours of compound treatment
[3] = tested on: NCI-H929 human multiple myeloma tumor cell line; assay: NCI-H929 cell viability assay (CellTiter-Glo, 24 hours); format: cell-based; details: Homo sapiens, NCI-H929, 24 h, read-out: H929 Viability IC50 (μM, 10% FBS), 10% FBS, 24 hours of compound treatment
[4] = MCL-1 Binding Ki (nM, 10% HS), in the presence of 10% HS (human serum)
[5] = without HS, read-out: MCL-1 Binding Ki

Sequence of GST-MCL-1 (Q07820 whole entry): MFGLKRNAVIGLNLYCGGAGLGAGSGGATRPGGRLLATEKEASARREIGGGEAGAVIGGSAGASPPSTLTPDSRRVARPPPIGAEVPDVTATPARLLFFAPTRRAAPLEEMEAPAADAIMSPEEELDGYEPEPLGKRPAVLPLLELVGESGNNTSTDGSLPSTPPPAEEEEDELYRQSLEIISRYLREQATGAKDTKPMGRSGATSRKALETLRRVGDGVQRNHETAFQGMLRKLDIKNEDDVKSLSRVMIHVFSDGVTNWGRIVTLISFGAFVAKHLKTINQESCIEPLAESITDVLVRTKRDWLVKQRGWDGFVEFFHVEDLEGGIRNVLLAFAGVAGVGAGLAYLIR

Compound | Ki [1, 4] [nM] | Ki [1, 5] [nM] | IC50 [2] [µM] | IC50 [3] [µM]
Cc1c2ccc(c1Cl)O[C@H](CN1CCN(C)CC1)COc1ccc(OCc3ccnc(-c4ccccc4OCC(=O)O)n3)c(c1)C[C@H](C(=O)O)Oc1ncnc3sc(-c4ccc(F)cc4)c-2c13 (atropisomer, axis not shown) [Example 24, (7R,16R,21S)-10-({2-[2-(carboxymethoxy)phenyl]pyrimidin-4-yl}methoxy)-19-chloro-1-(4-fluorophenyl)-20-methyl-16-[(4-methylpiperazin-1-yl)methyl]-7,8,15,16-tetrahydro-18,21-etheno-13,9-(metheno)-6,14,17-trioxa-2-thia-3,5-diazacyclononadeca[1,2,3-cd]indene-7-carboxylic Acid] | 0.098 | 0.015 | 0.0385 | 0.157
Cc1c(Cl)c2c(Cl)c(C)c1-c1c(-c3ccc(F)cc3)sc3ncnc(c13)O[C@@H](C(=O)O)Cc1cc(ccc1OCc1ccnc(N3C[C@H]4C[C@@H](C3)[C@H]4O)n1)OC[C@@H](CN1CCN(C)CC1)O2 [Example 167, (7R,16R)-19,23-dichloro-1-(4-fluorophenyl)-10-({2-[(1R,5S,6r)-6-hydroxy-3-azabicyclo[3.1.1]heptan-3-yl]pyrimidin-4-yl}methoxy)-20,22-dimethyl-16-[(4-methylpiperazin-1-yl)methyl]-7,8,15,16-tetrahydro-18,21-etheno-13,9-(metheno)-6,14,17-trioxa-2-thia-3,5-diazacyclononadeca[1,2,3-cd]indene-7-carboxylic Acid] | 0.698 | 0.06 | 0.002 | 0.00892
CO[C@H]1O[C@H](COc2ccc(-c3nccc(COc4ccc5cc4C[C@H](C(=O)O)Oc4ncnc6sc(-c7ccc(F)cc7)c(c46)-c4ccc(c(Cl)c4C)O[C@H](CN4CCN(C)CC4)CO5)n3)cc2)[C@@H](OC)[C@H](OC)[C@@H]1OC [Example 14, methyl 6-O-{4-[4-({[(7R,16R,21S)-7-carboxy-19-chloro-1-(4-fluorophenyl)-20-methyl-16-[(4-methylpiperazin-1-yl)methyl]-7,8,15,16-tetrahydro-18,21-etheno-13,9-(metheno)-6,14,17-trioxa-2-thia-3,5-diazacyclononadeca[1,2,3-cd]inden-10-yl]oxy}methyl)pyrimidin-2-yl]phenyl}-2,3,4-tri-O-methyl-a-D-mannopyranoside] | 0.547 | 0.124 | 0.00154 | 0.00258
COCC(COC)Oc1ccc(-c2nccc(COc3ccc4cc3C[C@H](C(=O)O)Oc3ncnc5sc(-c6ccc(F)cc6)c(c35)-c3c(C)c(Cl)c(c(Cl)c3C)O[C@H](CN3CCN(C)CC3)CO4)n2)cc1 [Example 110, (7R,16R)-19,23-dichloro-10-[(2-{4-[(1,3-dimethoxypropan-2-yl)oxy]phenyl}pyrimidin-4-yl)methoxy]-1-(4-fluorophenyl)-20,22-dimethyl-16-[(4-methylpiperazin-1-yl)methyl]-7,8,15,16-tetrahydro-18,21-etheno-9,13-(metheno)-6,14,17-trioxa-2-thia-3,5-diazacyclononadeca[1,2,3-cd]indene-7-carboxylic Acid] | 49.9 | 9.63 | 0.000306 | 0.00103
COCCOCCOCCOCc1ccc(-c2nccc(COc3ccc4cc3C[C@H](C(=O)O)Oc3ncnc5sc(-c6ccc(F)cc6)c(c35)-c3c(C)c(Cl)c(c(Cl)c3C)O[C@H](CN3CCN(C)CC3)CO4)n2)cc1COCCOCCOCCOC [Example 152, (7R,16R)-10-({2-[3,4-bis(2,5,8,11-tetraoxadodecan-1-yl)phenyl]pyrimidin-4-yl}methoxy)-19,23-dichloro-1-(4-fluorophenyl)-20,22-dimethyl-16-[(4-methylpiperazin-1-yl)methyl]-7,8,15,16-tetrahydro-18,21-etheno-13,9-(metheno)-6,14,17-trioxa-2-thia-3,5-diazacyclononadeca[1,2,3-cd]indene-7-carboxylic Acid] | 0.041 | 0.011 | 0.00732 | 0.00593
COCCOCCOCCOCCOC1(c2nccc(COc3ccc4cc3C[C@H](C(=O)O)Oc3ncnc5sc(-c6ccc(F)cc6)c(c35)-c3c(C)c(Cl)c(c(Cl)c3C)O[C@H](CN3CCN(C)CC3)CO4)n2)CCC1 [Example 64, (7R,16R)-19,23-dichloro-1-(4-fluorophenyl)-20,22-dimethyl-16-[(4-methylpiperazin-1-yl)methyl]-10-[(2-{1-[(2,5,8,11-tetraoxatridecan-13-yl)oxy]cyclobutyl}pyrimidin-4-yl)methoxy]-7,8,15,16-tetrahydro-18,21-etheno-9,13-(metheno)-6,14,17-trioxa-2-thia-3,5-diazacyclononadeca[1,2,3-cd]indene-7-carboxylic Acid] | 0.167 | 0.038 | 0.00163 | 0.00243
COCCOCCN(CCOCCOC)c1nccc(COc2ccc3cc2C[C@H](C(=O)O)Oc2ncnc4sc(-c5ccc(F)cc5)c(c24)-c2c(C)c(Cl)c(c(Cl)c2C)O[C@H](CN2CCN(C)CC2)CO3)n1 [Example 108, (7R,16R)-10-[(2-{bis[2-(2-methoxyethoxy)ethyl]amino}pyrimidin-4-yl)methoxy]-19,23-dichloro-1-(4-fluorophenyl)-20,22-dimethyl-16-[(4-methylpiperazin-1-yl)methyl]-7,8,15,16-tetrahydro-18,21-etheno-13,9-(metheno)-6,14,17-trioxa-2-thia-3,5-diazacyclononadeca[1,2,3-cd]indene-7-carboxylic Acid] | 6.62 | 1.08 | 0.00343 | 0.00417
Cc1c(Cl)c2c(Cl)c(C)c1-c1c(-c3ccc(F)cc3)sc3ncnc(c13)O[C@@H](C(=O)O)Cc1cc(ccc1OCc1ccnc(C3(COCCOC[C@H]4COCCO4)CCC3)n1)OC[C@@H](CN1CCN(C)CC1)O2 [Example 77, (7R,16R)-19,23-dichloro-10-[(2-{1-[(2-{[(2R)-1,4-dioxan-2-yl]methoxy}ethoxy)methyl]cyclobutyl}pyrimidin-4-yl)methoxy]-1-(4-fluorophenyl)-20,22-dimethyl-16-[(4-methylpiperazin-1-yl)methyl]-7,8,15,16-tetrahydro-18,21-etheno-13,9-(metheno)-6,14,17-trioxa-2-thia-3,5-diazacyclononadeca[1,2,3-cd]indene-7-carboxylic Acid] | 0.325 | 0.089 | 0.000193 | 0.000405
Cc1c(Cl)c2c(Cl)c(C)c1-c1c(-c3ccc(F)cc3)sc3ncnc(c13)O[C@@H](C(=O)O)Cc1cc(ccc1OCc1ccnc(-c3ccccc3S(C)(=N)=O)n1)OCC(CN1CCN(C)CC1)O2 (stereo partly drawn) [Example 26, (7R,16R)-19,23-dichloro-1-(4-fluorophenyl)-10-({2-[2-(S-methanesulfonimidoyl)phenyl]pyrimidin-4-yl}methoxy)-20,22-dimethyl-16-[(4-methylpiperazin-1-yl)methyl]-7,8,15,16-tetrahydro-18,21-etheno-13,9-(metheno)-6,14,17-trioxa-2-thia-3,5-diazacyclononadeca[1,2,3-cd]indene-7-carboxylic Acid] | 0.11 | 0.021 | 0.00112 | 0.00289
Cc1c(Cl)c2c(Cl)c(C)c1-c1c(-c3ccc(F)cc3)sc3ncnc(c13)O[C@@H](C(=O)O)Cc1cc(ccc1OCc1ccnc(N3CC4C(C3)C4(F)F)n1)OC[C@@H](CN1CCN(C)CC1)O2 (stereo partly drawn) [Example 33, (7R,16R)-19,23-dichloro-10-{[2-(6,6-difluoro-3-azabicyclo[3.1.0]hexan-3-yl)pyrimidin-4-yl]methoxy}-1-(4-fluorophenyl)-20,22-dimethyl-16-[(4-methylpiperazin-1-yl)methyl]-7,8,15,16-tetrahydro-18,21-etheno-13,9-(metheno)-6,14,17-trioxa-2-thia-3,5-diazacyclononadeca[1,2,3-cd]indene-7-carboxylic Acid] | 2.23 | 0.088 | 0.000282 | 0.00123
Cc1c(Cl)c2c(Cl)c(C)c1-c1c(-c3ccc(F)cc3)sc3ncnc(c13)O[C@@H](C(=O)O)Cc1cc(ccc1OCc1ccnc(N3CC4(C3)CC(F)(F)C4)n1)OC[C@@H](CN1CCN(C)CC1)O2 [Example 48, (7R,16R)-19,23-dichloro-10-{[2-(6,6-difluoro-2-azaspiro[3.3]heptan-2-yl)pyrimidin-4-yl]methoxy}-1-(4-fluorophenyl)-20,22-dimethyl-16-[(4-methylpiperazin-1-yl)methyl]-7,8,15,16-tetrahydro-18,21-etheno-9,13-(metheno)-6,14,17-trioxa-2-thia-3,5-diazacyclononadeca[1,2,3-cd]indene-7-carboxylic Acid] | 5.32 | 0.644 | 0.00275 | 0.00798
CO[C@H]1O[C@H](COc2cccc(-c3nccc(COc4ccc5cc4C[C@@H](C(=O)O)Oc4ncnc6sc(-c7ccc(F)cc7)c(c46)-c4ccc(c(Cl)c4C)O[C@H](CN4CCN(C)CC4)CO5)n3)c2)[C@@H](OC)[C@H](OC)[C@@H]1OC [Example 8, methyl 6-O-{3-[4-({[(7S,16R,21S)-7-carboxy-19-chloro-1-(4-fluorophenyl)-20-methyl-16-[(4-methylpiperazin-1-yl)methyl]-7,8,15,16-tetrahydro-18,21-etheno-13,9-(metheno)-6,14,17-trioxa-2-thia-3,5-diazacyclononadeca[1,2,3-cd]inden-10-yl]oxy}methyl)pyrimidin-2-yl]phenyl}-2,3,4-tri-O-methyl-a-D-mannopyranoside] | 111 | 8.83 | 0.518 | 0.989
